Test results taken from ChEMBL document CHEMBL4049433, “Prediction of Antibiotic Interactions Using Descriptors Derived from Molecular Structure” (2017).
Values after ≈ are worked out from the molar mass of the structure shown.

System: Escherichia coli
Assay: Antibacterial activity against Escherichia coli MG1655 measured every 15 mins for 12 hrs
Assay type: functional
Conditions: K-12 substr. MG1655

Compound	MIC
NCC[C@H](O)C(=O)N[C@@H]1C[C@H](N)[C@@H](O[C@H]2O[C@H](CN)[C@@H](O)[C@H](O)[C@H]2O)[C@H](O)[C@H]1O[C@H]1O[C@H](CO)[C@@H](O)[C@H](N)[C@H]1O [AMIKACIN]	4 µg/mL (≈ 6.83 µM)
CO[C@@]1(NC(=O)Cc2cccs2)C(=O)N2C(C(=O)O)=C(COC(N)=O)CS[C@@H]21 [CEFOXITIN]	4.5 µg/mL (≈ 10.5 µM)
O=C(N[C@H](CO)[C@H](O)c1ccc([N+](=O)[O-])cc1)C(Cl)Cl [CHLORAMPHENICOL]	5 µg/mL (≈ 15.5 µM)
CC[C@H]1OC(=O)[C@H](C)[C@@H](O[C@H]2C[C@@](C)(OC)[C@@H](O)[C@H](C)O2)[C@H](C)[C@@H](O[C@@H]2O[C@H](C)C[C@H](N(C)C)[C@H]2O)[C@](C)(OC)C[C@@H](C)C(=O)[C@H](C)[C@@H](O)[C@]1(C)O [CLARITHROMYCIN]	22 µg/mL (≈ 29.4 µM)
CC[C@H]1OC(=O)[C@H](C)[C@@H](O[C@H]2C[C@@](C)(OC)[C@@H](O)[C@H](C)O2)[C@H](C)[C@@H](O[C@@H]2O[C@H](C)C[C@H](N(C)C)[C@H]2O)[C@](C)(O)C[C@@H](C)C(=O)[C@H](C)[C@@H](O)[C@]1(C)O [ERYTHROMYCIN]	13 µg/mL (≈ 17.7 µM)
O=c1[nH]cc(F)c(=O)[nH]1 [FLUOROURACIL]	25 µg/mL (≈ 192 µM)
CC(=O)O[C@H]1C[C@@]2(C)[C@@H](C[C@@H](O)[C@H]3[C@@]4(C)CC[C@@H](O)[C@@H](C)[C@@H]4CC[C@@]32C)/C1=C(\CCC=C(C)C)C(=O)O [FUSIDIC ACID]	800 µg/mL (≈ 1550 µM)
NC[C@H]1O[C@H](O[C@H]2[C@H](O)[C@@H](O[C@H]3O[C@H](CO)[C@@H](O)[C@H](N)[C@H]3O)[C@H](N)C[C@@H]2N)[C@H](O)[C@@H](O)[C@@H]1O [KANAMYCIN]	14 µg/mL (≈ 28.9 µM)
C/C(=C\C(=O)OCCCCCCCCC(=O)O)C[C@@H]1OC[C@H](C[C@@H]2O[C@H]2[C@@H](C)[C@H](C)O)[C@@H](O)[C@H]1O [MUPIROCIN]	66 µg/mL (≈ 132 µM)
CCn1cc(C(=O)O)c(=O)c2ccc(C)nc21 [NALIDIXIC ACID]	5 µg/mL (≈ 21.5 µM)
O=C1CN(/N=C/c2ccc([N+](=O)[O-])o2)C(=O)N1 [NITROFURANTOIN]	12 µg/mL (≈ 50.4 µM)
Cc1onc(-c2ccccc2)c1C(=O)N[C@@H]1C(=O)N2[C@@H]1SC(C)(C)[C@@H]2C(=O)O [OXACILLIN]	190 µg/mL (≈ 473 µM)
CC1(C)S[C@@H]2[C@H](NC(=O)Cc3ccccc3)C(=O)N2[C@H]1C(=O)O [PENICILLIN G]	20 µg/mL (≈ 59.8 µM)
N=C(N)c1ccc(OCCCCCOc2ccc(C(=N)N)cc2)cc1 [PENTAMIDINE]	100 µg/mL (≈ 294 µM)
CO[C@H]1/C=C/O[C@@]2(C)Oc3c(C)c(O)c4c(O)c(c(/C=N/N5CCN(C)CC5)c(O)c4c3C2=O)NC(=O)/C(C)=C\C=C\[C@H](C)[C@H](O)[C@@H](C)[C@@H](O)[C@@H](C)[C@H](OC(C)=O)[C@@H]1C [RIFAMPIN]	2.5 µg/mL (≈ 3.04 µM)
CC[C@H]1OC(=O)[C@H](C)[C@@H](O[C@H]2C[C@@](C)(OC)[C@@H](O)[C@H](C)O2)[C@H](C)[C@@H](O[C@@H]2O[C@H](C)C[C@H](N(C)C)[C@H]2O)[C@](C)(O)C[C@@H](C)/C(=N\OCOCCOC)[C@H](C)[C@@H](O)[C@]1(C)O [ROXITHROMYCIN]	62 µg/mL (≈ 74.1 µM)
CN[C@@H]1[C@H](O)[C@H](NC)[C@H]2O[C@@]3(O)C(=O)C[C@@H](C)O[C@H]3O[C@@H]2[C@H]1O [SPECTINOMYCIN]	5.6 µg/mL (≈ 16.8 µM)
CN(C)[C@@H]1C(O)=C(C(N)=O)C(=O)[C@@]2(O)C(O)=C3C(=O)c4c(O)cccc4[C@@](C)(O)[C@H]3C[C@@H]12 [TETRACYCLINE]	18 µg/mL (≈ 40.5 µM)
NC[C@H]1O[C@H](O[C@H]2[C@H](O)[C@@H](O[C@H]3O[C@H](CO)[C@@H](O)[C@H](N)[C@H]3O)[C@H](N)C[C@@H]2N)[C@H](N)C[C@@H]1O [TOBRAMYCIN]	2.5 µg/mL (≈ 5.35 µM)
COc1cc(Cc2cnc(N)nc2N)cc(OC)c1OC [TRIMETHOPRIM]	0.35 µg/mL (≈ 1.21 µM)
CN[C@H](CC(C)C)C(=O)N[C@H]1C(=O)N[C@@H](CC(N)=O)C(=O)N[C@H]2C(=O)N[C@H]3C(=O)N[C@H](C(=O)N[C@H](C(=O)O)c4cc(O)cc(O)c4-c4cc3ccc4O)[C@H](O)c3ccc(c(Cl)c3)Oc3cc2cc(c3O[C@@H]2O[C@H](CO)[C@@H](O)[C@H](O)[C@H]2O[C@H]2C[C@](C)(N)[C@H](O)[C@H](C)O2)Oc2ccc(cc2Cl)[C@H]1O [VANCOMYCIN]	180 µg/mL (≈ 124 µM)
GENTAMICIN	3 µg/mL
